Data taken from patent US6953786B2, “Compositions comprising plant-derived polyphenolic compounds and inhibitors of reactive oxygen species and methods of using thereof” (The Regents of the University of California, priority 2002, dated 2005).
Residues, ends and D or L forms follow the SMILES beside them. *: point of attachment. Cbz = O=C(OCc1ccccc1)*; CH2F = FC*

Experiments:
Mia PACA-2 cells [1] = assay: Mitochondrial membrane potential, DiOC6(3) retention; assay type: cell-based, human; details: Mia PACA-2, 72 hours, in the presence of serum (FIG. 11)
Procedure: In order to determine the effects polyphenolic compounds have on mitochondrial membrane potential, the retention of the dye 3,3′-dihexyloxacarbocyanine (DiOC6(3)) was measured as described by Pastorino J G, et al. (1998) J Biol Chem 273:7770-7775, which is herein incorporated by reference. BSp73AS cells were cultured for 6 hours in the absence (control) or presence of 0, 12, 24, 50, and 100 μM quercetin and trans-resveratrol. The cells were loaded with 1 μM DiOC6(3) during the last 30 minutes of treatment with a polyphenolic compound (or vehicle). The cells were then collected and pelleted by centrifugation. The supernatant was removed and the pellet was washed twice with PBS by alternate centrifugation and resuspension. The pellet was then lysed by addition of 1 ml of H2O and homogenized. The concentration of DiOC6(3) was read on a Perkin-Elmer LS-5 fluorescence spectrometer at 488 nm excitation and 500 nm emission. An aliquot of the cells was used for determining the DiOC6(3) fluorescence that was retained by the cells.
Mia PACA-2 cells were cultured for 72 hours in the presence of serum and trans-resveratrol or genistein in the presence or absence of DPI or Tiron. Mitochondrial membrane potential was measured as described above.

Mia PACA-2 cells [2] = assay: Intracellular ROS (H2O2) by flow cytometry of DCF-labeled cells; assay type: cell-based, human; details: Mia PACA-2, 72 hours; DPI 15 μM
Procedure: To determine the effect of serum in cancer cells, the following assay was conducted. Mia PACA-2 pancreatic cancer cells were cultured for 72 hours in the absence and presence of serum (15% FBS) or 100 ng/ml insulin growth factor-1 (IGF-1). Dichloroflyorescein diocetate (DCF-DA) was used to label the cells. Intracellular H2O2 was measured by flow cytometry of DCF-labeled cells. Intracellular ROS was measured using oxidation-sensitive cell-permeable fluorescent probe, dichlorofluorescein diacetate (DCF-DA) to measure H2O2. See Royall J A, and Ischiropoulos H. (1993) Arch. Biochem. Biophys. 302:348-355. To measure ROS, cells were collected after incubation, washed with PBS, and incubated for 15 minutes with […] DCF-DA. Samples were analyzed by flow cytometry. The amount of DCF-DA fluorescence correlated with the amount of ROS in the cells To determine the effects of serum, IGF-1, polyphenols and inhibitors of ROS on ROS production in cancer cells, the following assay was conducted. Mia PACA-2 cells were cultured for 72 hours in the presence of serum or IGF-1 with or without antioxidants, intracellular superoxide scavenger tiron (10 mM) or NADPH oxidase inhibitor, diphenylene iodonium (DPI, 15 μM) and trans-resveratrol (100 μM), genistein (100 μM), or a combination of polyphenolic compounds and antioxidants. Intracellular H2O2 was measured by flow cytometry of DCF-labeled cells. Mia PACA-2 cells and BSp73AS cells were cultured in Dulbecco's Modified Eagle's Medium supplemented with 10% heat inactivated FBS, penicillin G (100 U/ml) and streptomycin ([…]) in a humidified atmosphere comprising 5% (v/v) CO2. When the cells were 90% confluent they were detached, washed with alternating centrifugation and resuspension, plated and incubated in the same media with or without FBS or IGF-1 and with or without a given polyphenolic compound and with or without a given ROS inhibitor.

NF-κB = NF-κB DNA binding activity (EMSA / gel shift); assay type: cell-based, human; details: Mia PACA-2, 72 hours, with serum; DPI 15 μM, trans-resveratrol 100 μM, genistein 100 μM, LY294002 50 μM
Procedure: In order to determine the role of activated NF-κB in the regulation of apoptosis caused by the polyphenolic compound, the following assay was conducted. BSp73AS cells were cultured for 6 hours and Mia PACA-2 cells were cultured in the absence of serum or growth factors for 24 hours in the absence (controls) or presence of rutin, quercetin, trans-resveratrol, or genistein, each at 100 μM and 20 μM proteosome inhibitor MG-132. Nuclear proteins were isolated and analyzed for NF-κB DNA binding activity with electrophoretic mobility shift assay (EMSA).
Specifically, aliquots of nuclear extracts with equal amount of protein, about 2 to about 10 μg, were mixed in 20 μl reactions with a buffer comprising 10 mM HEPES (pH 7.6), 50 mM KCl, 0.1 mM EDTA, 1 mM DTT, 10% (vol/vol) glycerol and 3 μg poly[d (I-C)]. After aliquots were equilibrated on ice for 5 minutes, binding reactions were stared by addition of 20-60,000 counts/min (20 fM) of ^32P-labeled DNA probes and allowed to proceed for 25-30 minutes at room temperature or up to 1 hour on ice. The oligonucleotide probe
containing the κB binding motif (underlined) was annealed to the complementary oligonucleotide with a 5′-G overhang and end-labeled using Klenow DNA polymerase I. The samples were electrophoresed at room temperature in 0.5×TBE buffer (1×TBE 89 mM Tris base, 89 mM boric acid and 2 mM EDTA) on nondenaturing 4.5% polyacrylamide gel at 200 V. Gels were dried and directly analyzed in the PhosphorImager (Molecular Dynamics, Sunnyvale, Calif.). The experiment was repeated twice.
To study the effects of combinations of DPI and polyphenolic compounds on serum-induced activation of NF-κB and protection from apoptosis, the following assay was conducted. Mia PACA-2 cells were cultured for 72 hours in the presence of serum with or without 100 μM trans-resveratrol, 15 μM DPI, a combination of trans-resveratrol, 100 μM genistein, or a combination of genistein and DPI. NF-κB binding activity was measured in nuclear extracts by gel shift assay as described above.
To determine the effects of LY29400 and DPI on NF-κB activation, Mia PACA-2 cells were cultured for 72 hours in the presence of serum and 15 μM DPI with or without 50 μM LY294002. NF-κB DNA binding activity was measured in nuclear extracts by gel shift assay as described above.

Mia PACA-2 cells [3] = assay: Oligonucleosomal DNA fragmentation by cell death ELISA; assay type: cell-based, human; details: Mia PACA-2, 72 hours, with serum
Procedure: Mia PACA-2 cells were cultured for 72 hours in the presence of serum with or without 15 μM DPI, 10 mM Tiron, 100 μM genistein, 100 μM or 50 μM trans-resveratrol, or a combination thereof. Oligonucleosomal DNA fragmentation was measured in cell lysates by cell death ELISA.
Annexin staining was conducted as described above. Cells were collected, washed with PBS, and centrifuged for 10 min at 200×g. DNA fragmentation was determined using Cell Death Detection ELISA Plus kit (Roche Molecular Biochemicals).
To determine the role of caspases in the effects of combinations of agents on apoptosis, the effects of caspase-3 activity (DEVDase activity) as well as the effect of the broad spectrum caspase inhibitor, Z-VAD, on apoptosis was measured. Specifically, Mia PACA-2 cells were cultured for 72 hours in the presence of serum with or without 100 μM Z-VAD, 15 μM DPI, 100 μM trans-resveratrol, 100 μM genistein, a combination of trans-resveratrol and DPI, and a combination of genistein and DPI. DEVDase activity was measured in whole cell lysates with a fluorimetric assay. DNA fragmentation was measured in cell lysates by cell death ELISA.
In particular, Mia PACA-2 cells were cultured for 72 hours in the presence of serum with or without 50 μM trans-resveratrol (RS), 15 μM DPI, a combination of DPI and trans-resveratrol (RS+DPI), 10 μM MG-132 alone and in combination with RS, DPI, and RS+DPI. Internucleosomal DNA fragmentation was measured in cell lysates by cell death ELISA.

PARP [4] = assay: PARP proteolysis (Western blot); assay type: cell-based, human; details: Mia PACA-2, 24 hours, 50 μM inhibitor
Procedure: (§1) BSp73AS cells were cultured for 6 hours and Mia PACA-2 cells were cultured for 24 hours in the presence or absence of 100 μM of each rutin, quercetin or trans-resveratrol and with or without 50 μM of each […]. The cells were washed twice with PBS and lysed by incubating for 20 minutes at 4° C. in lysis buffer comprising 0.15 M NaCl, 50 mM Tris (pH 7.2), 1% deoxycholic acid (wt/vol), 1% Triton X-100 (wt/vol), 0.1% […] (wt/vol) and 1 mM PMSF, as well as 5 μg/ml each of protease inhibitors, pepstatin, leupeptin, chymostatin, antipain, and aprotinin. Then the cell lysates were centrifuged for 20 minutes at 15,000 g at 4° C. The supernatants were separated by 4-20% SDS-PAGE for 2 hours at 120 V using precast Tris-glycine gels and a Mini-Cell gel apparatus (Novex, San Diego, Calif.). Separated proteins were electrophoretically transferred to a nitrocellulose membrane for 2 hours at 30 V using a Novex Blot Module (Novex, San Diego, Calif.). Nonspecific binding was blocked by 1 hour incubation of nitrocellulose membranes in 5% (wt/vol) nonfat dry milk in Tris-buffered saline (TBS; pH 7.5). Blots were then incubated overnight at 4° C. with rabbit polyclonal antibody against poly (ADP-ribose) polymerase (PARP) (Santa Cruz Biotechnology, Santa Cruz, Calif.) (1;3,000) in an antibody buffer comprising (1% (wt/vol) non-fat dry milk in TTBS (0.05% vol/vol) Tween-20 in TBS), washed 3 times with TTBS and finally incubated for 1 hour with a peroxidase-labeled secondary antibody in the antibody buffer. Blots were developed for visualization using ECL detection kit. To test for equal protein loading, the blots were stripped and re-probed with an antibody against tubulin. When processing of a protein was measured, a decrease in unprocessed full-length form was measured concomitantly with the increase in the cleaved, active form. The experiment was repeated 3 times with similar results.

cytochrome c = assay: Mitochondrial cytochrome c release (Western blot); assay type: cell-based, human; details: Mia PACA-2, 24 hours, Z-VAD FMK 50 μM
Procedure: In order to determine the effects polyphenolic compounds have on mitochondrial cytochrome c release and apoptosis, the following assay was conducted. BSp73AS cells were cultured for 6 hours and Mia PACA-2 cells were cultured in the absence of serum or growth factors for 24 hours in the absence or presence of 100 μM of each rutin, trans-resveratrol, genistein, or quercetin. Cells were washed twice with ice-cold PBS, pH 7.2 and resuspended in extraction buffer, about 500 μl, comprising 20 mM HEPES-KOH (pH 7.0), 10 mM KCl, 1 mM NaEGTA, 2 mM MgCl2, 1 mM EDTA, 1 mM DTT, 250 mM sucrose, 1 mM PMSF and protease inhibitors cocktail as provided above. The lysate was incubated for 30 minutes on ice and then homogenized using a glass dounce (80 strokes). Nuclei were removed by centrifugation at 1,000 g for 10 minutes at 4° C. Supernatant was additionally centrifuged for 1 hour at 100,000 g and the resulting supernatant (cytosolic fraction) and pellet (mitochondrial fraction) were collected separately, subjected to SDS-PAGE, and Western blotting using an antibody against cytochrome c. The experiment was repeated twice with similar results.
In order to determine the role of the cancer cell's PTP in the effects of the polyphenolic compounds on mitochondrial function, caspase-3 activation and apoptosis, we performed the following experiments. Mia PACA-2 cells were cultured in the absence of serum or growth factors for 24 hours in the presence or absence of quercetin (100 μM), trans-resveratrol (100 μM), Z-VAD FMK (50 μM), cyclosporin A (5 μM) and/or aristolochic acid (50 μM). Cells were collected, washed with ice-cold PBS and resuspended in lysis buffer comprising 0.5% Nonidet P-40 or manufactured by the name IGEPAL CA-630, 0.5 mM EDTA, 150 mM NaCl and 50 mM Tris at pH 7.5. Cell lysates were placed for 30 minutes on a rotator at 4° C. and then centrifuged for 15 minutes at 15,000 g. Cytosolic protein extracts (supernatants) were collected, protein concentrations were determined and the extracts were aliquoted and stored at −80° C. Cytosolic extracts were subjected to SDS-PAGE and Western blot was performed with an antibody against cytochrome c. Blots were then stripped and re-probed with an antibody against tubulin to confirm equal protein loading. The experiment was repeated twice with similar results.
In order to determine the effect of a combination of trans-resveratrol and quercetin on cytochrome c release and caspase-3 activity, the following was conducted. Mia PACA-2 cells were cultured in the absence of serum or growth factors for 24 hours in the presence or absence of trans-resveratrol (25 μM), quercetin (25 μM), or the combination of trans-resveratrol (25 μM) and quercetin (25 μM). Cytosolic extracts were prepared and subject to SDS-PAGE followed by protein transfer. Immunoblot was performed with an antibody against tubulin to confirm equal protein loading.

caspase-3 = assay: Caspase-3 (DEVDase) activity, fluorogenic assay with DEVD-AMC; assay type: cell-based, human; details: Mia PACA-2, 24 hours; Z-VAD FMK 50 μM (FIG. 12B)
Procedure: To determine whether a polyphenolic compound activates caspase-3 activity in a time-dependent manner, the following assay was conducted. BSp73AS cells were cultured for 0, 1, 3, and 6 hours and Mia PACA-2 cells were cultured in the absence of serum or growth factors for 0, 1, 4, 6, and 24 hours in the presence of 100 μM or quercetin, trans-resveratrol, rutin, or control. Caspase-3 activity was measured in cell lysates with a fluorogenic assay using DEVD-AMC as a substrate. The results were normalized to the DEVDase activity in untreated cells.
A fluorimetric assay for caspase-3 activity was conducted. […] Cytosolic protein extracts (supernatants) were collected, protein concentrations were determined and the extracts were aliquoted and stored at −80° C. […] The reaction was started by addition of caspase-3 substrate, the readings were taken at 0, 60, 90, and 120 minutes. Fluorescence was calibrated using a standard curve for AMC. The data were expressed as mol AMC/mg protein/min.
Mia PACA-2 cells were cultured in the absence of serum or growth factors for 24 hours in the presence or absence of quercetin (100 μM), trans-resveratrol (100 μM), Z-VAD FMK (50 μM), cyclosporin A (5 μM) and/or aristolochic acid (50 μM). […] The reaction was started by addition of caspase-3 substrate, the readings were taken at 0, 60, 90, and 120 minutes. Fluorescence was calibrated using a standard curve for AMC. […] The data were expressed as mol AMC/mg protein/min. […]

PARP [5] = assay: PARP proteolysis (Western blot); assay type: cell-based, rat; details: BSp73AS, 6 hours, 50 μM inhibitor
Procedure: as §1

| SMILES | mitochondrial membrane potential (Mia PACA-2 cells [1]) | increase in ROS production caused by trans-resveratrol and genistein, effect of DPI (Mia PACA-2 cells [2]) | NF-κB activation caused by serum (NF-κB) | oligonucleosomal DNA fragmentation (apoptosis) (Mia PACA-2 cells [3]; DPI 15 μM, Tiron 10 mM, genistein 100 μM, trans-resveratrol 100 or 50 μM) | PARP cleavage by quercetin and trans-resveratrol in the presence of caspase inhibitor (PARP [4]) | release of cytochrome c into the cytoplasm in control (untreated) cells (cytochrome c; no serum) | cytosolic cytochrome c release caused by quercetin or trans-resveratrol (cytochrome c; polyphenol 100 μM) | caspase activity in cells treated with polyphenolic compounds, effect of Z-VAD (caspase-3) | apoptosis (DNA fragmentation) caused by combinations of ROS inhibitor and polyphenolic compound, effect of Z-VAD (Mia PACA-2 cells [3]; Z-VAD 100 μM) | PARP cleavage by quercetin and trans-resveratrol in the presence of caspase inhibitor (PARP [5]) |
| --- | --- | --- | --- | --- | --- | --- | --- | --- | --- | --- |
| c1ccc2c(c1)[I+]c1ccccc1-2 [DPI, diphenylene iodonium, reference compound] | markedly depolarized the mitochondrial membrane | prevented | not inhibited | either no or small effects | – | – | – | – | – | – |
| O=S(=O)(O)c1cc(O)c(O)c(S(=O)(=O)O)c1 [Tiron, reference compound] | markedly depolarized the mitochondrial membrane | – | – | – | – | – | – | – | – | – |
| COC(=O)C[C@H](NC(=O)[C@H](C)NC(=O)[C@@H](NC(=O)OCc1ccccc1)C(C)C)C(=O)CF [Z-VAD, reference compound] (Cbz-Val-Ala-Asp(OMe)-CH2F) | – | – | – | – | cleavage did not occur | inhibited the release of cytochrome c | had no effect | blocked caspase activity | inhibits apoptosis caused by the combinations | cleavage did not occur |
